Measurements from patent US12281122B1, “PI3K inhibitors” (Cogent Biosciences, Inc., priority 2023, dated 2025).

Tests used:
[1] = test system: SKBR3 (PI3Kα-Wild Type) cell line; test: HTRF phospho-AKT(S473) cell assay in SKBR3 cells; assay type: cell-based, human; conditions: Homo sapiens, SK-BR-3; SKBR3 (PI3Kα-Wild Type) cells, HTRF phospho-AKT(S473), 2 hours compound incubation, PDGF-BB stimulated
Procedure, shortened: (§1)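 T47D (PI3Kα-H1047R; RPMI, 10% FBS, insulin) and SKBR3 (wild-type PI3Kα; McCoy's 5A, 10% FBS) cells treated 2 h at 37 °C with 12-point 1:3 dilutions, top 5 μM and 10 μM respectively, ≤0.5% DMSO. SKBR3 stimulated with 70 ng/ml PDGF-BB for the last 15 min; lysate pAKT(S473) by HTRF, IC50 from curves.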

[2] = test system: T47D (PI3Kα-H1047R) cell line; test: HTRF phospho-AKT(S473) cell assay in T47D cells; assay type: cell-based, human; conditions: Homo sapiens; T47D (PI3Kα-H1047R) cells, HTRF phospho-AKT(S473), 2 hours compound incubation
Procedure, shortened: as §1

SMILES | IC50 [1] | IC50 [2]
Cc1cc([C@@H](C)Nc2ccc(Cl)nc2C(=O)NS(C)(=O)=O)c2nc(N3CCC(c4nn(C)cc4F)CC3)n(C)c(=O)c2c1 [Compound 247, (R)-6-chloro-3-((1-(2-(4-(4-fluoro-1-methyl-1H-pyrazol-3-yl)piperidin-1-yl)-3,6-dimethyl-4-oxo-3,4-dihydroquinazolin-8-yl)ethyl)amino)-N-(methylsulfonyl) picolinamide] | 1000 to 5000 nM | < 250 nM
Cc1cc([C@@H](C)Nc2ccc(Cl)nc2C(=O)NS(C)(=O)=O)c2nc(N3CCC(c4nn(C)cc4C)CC3)n(C)c(=O)c2c1 [Compound 248, ®-6-chloro-3-((1-(2-(4-(1,4-dimethyl-1H-pyrazol-3-yl)piperidin-1-yl)-3,6-dimethyl-4-oxo-3,4-dihydroquinazolin-8-yl)ethyl)amino)-N-(methylsulfonyl) picolinamide] | 1000 to 5000 nM | < 250 nM
Cc1cc([C@@H](C)Nc2ccc(Cl)nc2C(=O)NS(C)(=O)=O)c2nc(N3CCC(c4ccn(C(C)C)n4)CC3)n(C)c(=O)c2c1 [Compound 249, (R)-6-chloro-3-((1-(2-(4-(1-isopropyl-1H-pyrazol-3-yl)piperidin-1-yl)-3,6-dimethyl-4-oxo-3,4-dihydroquinazolin-8-yl)ethyl)amino)-N-(methylsulfonyl) picolinamide] | 1000 to 5000 nM | < 250 nM
Cc1cc([C@@H](C)Nc2ccc(Cl)nc2C(=O)NS(C)(=O)=O)c2nc(N3Cc4cn(-c5ccc(C#N)cc5C)nc4C3)n(C)c(=O)c2c1 [Compound 250, (R)-6-chloro-3-((1-(2-(2-(4-cyano-2-methylphenyl)-2,6-dihydropyrrolo[3,4-c]pyrazol-5(4H)-yl)-3,6-dimethyl-4-oxo-3,4-dihydroquinazolin-8-yl)ethyl)amino)-N-(methylsulfonyl) picolinamide] | 1000 to 5000 nM | < 250 nM
Cc1cc([C@@H](C)Nc2ccc(Cl)nc2C(=O)NS(C)(=O)=O)c2nc(-c3ccc(N4CCN(C)CC4)nc3)n(C)c(=O)c2c1 [Compound 251] | 1000 to 5000 nM | < 250 nM
Cc1cc([C@@H](C)Nc2ccc(Cl)nc2C(=O)NS(C)(=O)=O)c2nc(N3Cc4cnn(-c5cccnc5C)c4C3)n(C)c(=O)c2c1 [Compound 252, (R)-6-chloro-3-((1-(3,6-dimethyl-2-(1-(2-methylpyridin-3-yl)-4,6-dihydropyrrolo[3,4-c]pyrazol-5(1H)-yl)-4-oxo-3,4-dihydroquinazolin-8-yl)ethyl)amino)-N-(methylsulfonyl) picolinamide] | 1000 to 5000 nM | < 250 nM
Cc1cc([C@@H](C)Nc2ccc(Cl)nc2C(=O)NS(C)(=O)=O)c2nc(N3CCC(c4ncn(C)n4)CC3)n(C)c(=O)c2c1 [Compound 253, (R)-6-chloro-3-((1-(3,6-dimethyl-2-(4-(1-methyl-1H-1,2,4-triazol-3-yl)piperidin-1-yl)-4-oxo-3,4-dihydroquinazolin-8-yl)ethyl)amino)-N-(methylsulfonyl) picolinamide] | 1000 to 5000 nM | 250 to 500 nM
CC(=O)Nc1ccc(C2CCN(c3nc4c([C@@H](C)Nc5ccc(Cl)nc5C(=O)NS(C)(=O)=O)cc(C)cc4c(=O)n3C)CC2)cn1 [Compound 254, (R)-3-((1-(2-(4-(6-acetamidopyridin-3-yl)piperidin-1-yl)-3,6-dimethyl-4-oxo-3,4-dihydroquinazolin-8-yl)ethyl)amino)-6-chloro-N-(methylsulfonyl) picolinamide] | 1000 to 5000 nM | < 250 nM
Cc1cc([C@@H](C)Nc2ccc(Cl)nc2C(=O)NS(C)(=O)=O)c2nc(N3CCC(n4ncc5cc(C#N)ccc54)CC3)n(C)c(=O)c2c1 [Compound 255, (R)-6-chloro-3-((1-(2-(4-(5-cyano-1H-indazol-1-yl)piperidin-1-yl)-3,6-dimethyl-4-oxo-3,4-dihydroquinazolin-8-yl)ethyl)amino)-N-(methylsulfonyl) picolinamide] | 1000 to 5000 nM | < 250 nM
Cc1cc([C@@H](C)Nc2ccc(Cl)nc2C(=O)NS(C)(=O)=O)c2nc(N3CCN(c4ccn(C)n4)[C@H](C)C3)n(C)c(=O)c2c1 [Compound 256, 6-chloro-3-(((R)-1-(3,6-dimethyl-2-((R)-3-methyl-4-(1-methyl-1H-pyrazol-3-yl)piperazin-1-yl)-4-oxo-3,4-dihydroquinazolin-8-yl)ethyl)amino)-N-(methylsulfonyl) picolinamide] | 1000 to 5000 nM | < 250 nM
Cc1cc([C@@H](C)Nc2ccc(Cl)nc2C(=O)NS(C)(=O)=O)c2nc(N3CCN(c4cnc(C)nc4)CC3)n(C)c(=O)c2c1 [Compound 257, (R)-6-chloro-3-((1-(3,6-dimethyl-2-(4-(2-methylpyrimidin-5-yl)piperazin-1-yl)-4-oxo-3,4-dihydroquinazolin-8-yl)ethyl)amino)-N-(methylsulfonyl) picolinamide] | 1000 to 5000 nM | < 250 nM
Cc1cc([C@@H](C)Nc2ccc(Cl)nc2C(=O)NS(C)(=O)=O)c2nc(N3CCC(n4ncc5ccncc54)CC3)n(C)c(=O)c2c1 [Compound 258] | 1000 to 5000 nM | < 250 nM
CC(=O)N1CCN(c2ncc(-c3nc4c([C@@H](C)Nc5ccc(Cl)nc5C(=O)NS(C)(=O)=O)cc(C)cc4c(=O)n3C)cc2F)CC1 [Compound 259, (R)-3-((1-(2-(6-(4-acetylpiperazin-1-yl)-5-fluoropyridin-3-yl)-3,6-dimethyl-4-oxo-3,4-dihydroquinazolin-8-yl)ethyl)amino)-6-chloro-N-(methylsulfonyl) picolinamide] | 1000 to 5000 nM | < 250 nM
Cc1cc([C@@H](C)Nc2ccc(Cl)nc2C(=O)NS(C)(=O)=O)c2nc(N3CCC(c4ccnc(C)n4)CC3)n(C)c(=O)c2c1 [Compound 260, (R)-6-chloro-3-((1-(3,6-dimethyl-2-(4-(2-methylpyrimidin-4-yl)piperidin-1-yl)-4-oxo-3,4-dihydroquinazolin-8-yl)ethyl)amino)-N-(methylsulfonyl) picolinamide] | 1000 to 5000 nM | < 250 nM
Cc1cc([C@@H](C)Nc2ccc(Cl)nc2C(=O)NS(C)(=O)=O)c2nc(N3CCC(c4cnc(C)nc4)CC3)n(C)c(=O)c2c1 [Compound 261, (R)-6-chloro-3-((1-(3,6-dimethyl-2-(4-(2-methylpyrimidin-5-yl)piperidin-1-yl)-4-oxo-3,4-dihydroquinazolin-8-yl)ethyl)amino)-N-(methylsulfonyl) picolinamide] | 1000 to 5000 nM | < 250 nM
Cc1cc([C@@H](C)Nc2ccc(Cl)nc2C(=O)NS(C)(=O)=O)c2nc(N3CCN(c4ncc(C#N)cc4F)CC3)n(C)c(=O)c2c1 [Compound 262, (R)-6-chloro-3-((1-(2-(4-(5-cyano-3-fluoropyridin-2-yl)piperazin-1-yl)-3,6-dimethyl-4-oxo-3,4-dihydroquinazolin-8-yl)ethyl)amino)-N-(methylsulfonyl) picolinamide] | 1000 to 5000 nM | < 250 nM
Cc1cc([C@@H](C)Nc2ccc(Cl)nc2C(=O)NS(C)(=O)=O)c2nc(N3CCC(c4ccc(C)nn4)CC3)n(C)c(=O)c2c1 [Compound 264, (R)-6-chloro-3-((1-(3,6-dimethyl-2-(4-(6-methylpyridazin-3-yl)piperidin-1-yl)-4-oxo-3,4-dihydroquinazolin-8-yl)ethyl)amino)-N-(methylsulfonyl) picolinamide] | 1000 to 5000 nM | < 250 nM
Cc1cc([C@@H](C)Nc2ccc(Cl)nc2C(=O)NS(C)(=O)=O)c2nc(N3CCC(Oc4ccn(C)n4)CC3)n(C)c(=O)c2c1 [Compound 265, (R)-6-chloro-3-((1-(3,6-dimethyl-2-(4-((1-methyl-1H-pyrazol-3-yl)oxy)piperidin-1-yl)-4-oxo-3,4-dihydroquinazolin-8-yl)ethyl)amino)-N-(methylsulfonyl) picolinamide] | 1000 to 5000 nM | < 250 nM
Cc1cc([C@@H](C)Nc2ccc(Cl)nc2C(=O)NS(C)(=O)=O)c2nc(N3CCC(c4ncc(C#N)cc4C)CC3)n(C)c(=O)c2c1 [Compound 266, (R)-6-chloro-3-((1-(2-(4-(5-cyano-3-methylpyridin-2-yl)piperidin-1-yl)-3,6-dimethyl-4-oxo-3,4-dihydroquinazolin-8-yl)ethyl)amino)-N-(methylsulfonyl) picolinamide] | 1000 to 5000 nM | < 250 nM
Cc1cc([C@@H](C)Nc2ccc(Cl)nc2C(=O)NS(C)(=O)=O)c2nc(N3CCC(c4ccn(C5CC5)n4)CC3)n(C)c(=O)c2c1 [Compound 267, (R)-6-chloro-3-((1-(2-(4-(1-cyclopropyl-1H-pyrazol-3-yl)piperidin-1-yl)-3,6-dimethyl-4-oxo-3,4-dihydroquinazolin-8-yl)ethyl)amino)-N-(methylsulfonyl) picolinamide] | 1000 to 5000 nM | < 250 nM
Cc1cc([C@@H](C)Nc2ccc(Cl)nc2C(=O)NS(C)(=O)=O)c2nc(N3CCC(n4c(C)nc5ccccc54)CC3)n(C)c(=O)c2c1 [Compound 268, (R)-6-chloro-3-((1-(3,6-dimethyl-2-(4-(2-methyl-1H-benzo[d]imidazol-1-yl)piperidin-1-yl)-4-oxo-3,4-dihydroquinazolin-8-yl)ethyl)amino)-N-(methylsulfonyl) picolinamide] | ≥ 5000 nM | < 250 nM
Cc1cc([C@@H](C)Nc2ccc(Cl)nc2C(=O)NS(C)(=O)=O)c2nc(N3C4CCC3CN(c3cnn(C)c3)C4)n(C)c(=O)c2c1 [Compound 269, 6-chloro-3-(((1R)-1-(3,6-dimethyl-2-(3-(1-methyl-1H-pyrazol-4-yl)-3,8-diazabicyclo[3.2.1]octan-8-yl)-4-oxo-3,4-dihydroquinazolin-8-yl)ethyl)amino)-N-(methylsulfonyl) picolinamide] | 1000 to 5000 nM | < 250 nM
